# Assay results from ChEMBL document CHEMBL5154687, “Intramolecular hydrogen bond interruption and scaffold hopping of TMC-5 led to 2-(4-alkoxy-3-cyanophenyl)pyrimidine-4/5-carboxylic acids and 6-(4-alkoxy-3-cyanophenyl)-1,2-dihydro-3H-pyrazolo[3,4-d]pyrimidin-3-ones as potent pyrimidine-based xanthine oxidase inhibitors” (Eur J Med Chem, 2022).
# The source made the active and inactive calls. The calls are words filed in the database; no cut-off is given here.
# Assays:
# Rattus norvegicus = experiment: Hypouricemic activity in overnight-fasted Sprague-Dawley rat model of Potassium oxonate-induced acute hyperuricemia assessed as decrease in serum uric acid at 10 mg/kg, po administered after potassium oxonate treatment and measured up to 5 hrs relative to control; type: functional, organism-based
# [1] = target: T1, Xanthine dehydrogenase/oxidase (Homo sapiens, UniProt P47989)
# T1 sequence (P47989 whole entry): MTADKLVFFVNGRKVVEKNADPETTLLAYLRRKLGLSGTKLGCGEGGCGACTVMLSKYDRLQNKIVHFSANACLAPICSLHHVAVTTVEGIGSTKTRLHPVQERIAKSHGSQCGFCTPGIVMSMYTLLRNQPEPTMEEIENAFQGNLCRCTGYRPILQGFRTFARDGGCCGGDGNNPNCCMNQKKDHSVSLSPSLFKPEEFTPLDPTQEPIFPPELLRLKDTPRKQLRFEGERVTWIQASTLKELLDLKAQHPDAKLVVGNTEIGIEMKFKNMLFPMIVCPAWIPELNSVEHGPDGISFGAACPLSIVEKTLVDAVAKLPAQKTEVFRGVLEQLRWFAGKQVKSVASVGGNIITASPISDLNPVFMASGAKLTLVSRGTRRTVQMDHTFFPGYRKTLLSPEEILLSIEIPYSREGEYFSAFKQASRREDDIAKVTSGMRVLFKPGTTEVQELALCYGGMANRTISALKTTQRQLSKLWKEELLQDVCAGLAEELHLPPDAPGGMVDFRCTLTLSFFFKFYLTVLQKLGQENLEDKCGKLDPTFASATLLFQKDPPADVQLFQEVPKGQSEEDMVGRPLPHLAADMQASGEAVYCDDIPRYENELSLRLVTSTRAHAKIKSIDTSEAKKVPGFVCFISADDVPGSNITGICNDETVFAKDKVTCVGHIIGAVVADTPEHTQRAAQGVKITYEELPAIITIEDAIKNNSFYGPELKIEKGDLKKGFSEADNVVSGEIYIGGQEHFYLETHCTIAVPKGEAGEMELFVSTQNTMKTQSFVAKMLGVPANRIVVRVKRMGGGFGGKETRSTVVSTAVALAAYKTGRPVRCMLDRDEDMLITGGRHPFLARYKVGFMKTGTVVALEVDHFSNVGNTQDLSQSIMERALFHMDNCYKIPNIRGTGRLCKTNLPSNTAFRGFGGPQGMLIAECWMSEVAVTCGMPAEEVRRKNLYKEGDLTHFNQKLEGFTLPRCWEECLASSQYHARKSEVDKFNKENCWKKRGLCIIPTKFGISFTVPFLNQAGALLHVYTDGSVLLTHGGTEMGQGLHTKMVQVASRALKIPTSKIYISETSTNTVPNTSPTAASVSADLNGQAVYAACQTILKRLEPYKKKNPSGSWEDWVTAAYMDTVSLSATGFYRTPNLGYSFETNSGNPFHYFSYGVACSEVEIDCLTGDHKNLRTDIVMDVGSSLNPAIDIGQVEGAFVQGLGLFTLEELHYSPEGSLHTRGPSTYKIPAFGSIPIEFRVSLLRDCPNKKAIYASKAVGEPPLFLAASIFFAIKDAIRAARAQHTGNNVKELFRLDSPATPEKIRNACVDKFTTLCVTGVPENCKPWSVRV
# Description: Inhibition of xanthine oxidase (unknown origin) using xanthine as substrate preincubated for 15 mins followed by substrate addition by UV spectrophotometric analysis
# [2] = target: T1, Xanthine dehydrogenase/oxidase; experiment: Mixed-type inhibition of xanthine oxidase (unknown origin) assessed as Inhibitor dissociation constant using xanthine as substrate incubated for 15 mins followed by substrate addition by UV spectrophotometric analysis; conditions: read-out: Kis
IC50 [1] [nM],Ki [2] [nM],Structure (SMILES),Activity (Rattus norvegicus)
,,CC(C)Oc1ccc(-c2ncc3c(=O)[nH][nH]c3n2)cc1C#N,Active
,,CC(C)Oc1ccc(-c2nccc(C(=O)O)n2)cc1C#N,Active
28,0.9,Cc1nc(-c2ccc(OCC(C)C)c(C#N)c2)sc1C(=O)O [FEBUXOSTAT],
